Results published in EP0974362A1, “DRUGS CONTAINING ENZYME INHIBITORS AS THE ACTIVE INGREDIENT” (CHUGAI SEIYAKU KABUSHIKI KAISHA, priority 1997, dated 1998).
Where two headings read alike, the source gives them in different places.

Columns and labels:
[1] = molecular target: T1, adenylosuccinate synthase (Oryctolagus cuniculus, UniProt G1TGN8); assay: adenylosuccinate synthase inhibition (change of absorbance at 285 nm with time); assay type: biochemical
T1 sequence (G1TGN8 with tags, fused parts or gaps): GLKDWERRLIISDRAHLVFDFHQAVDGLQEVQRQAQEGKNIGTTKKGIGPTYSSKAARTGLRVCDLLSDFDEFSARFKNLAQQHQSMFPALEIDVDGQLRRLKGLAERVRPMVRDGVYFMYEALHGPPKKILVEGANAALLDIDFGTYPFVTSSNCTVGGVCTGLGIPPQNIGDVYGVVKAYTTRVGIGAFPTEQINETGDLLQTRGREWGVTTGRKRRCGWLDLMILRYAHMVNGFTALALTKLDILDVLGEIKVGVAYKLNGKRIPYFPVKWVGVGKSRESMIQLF
Excerpt: As existing adenylosuccinate synthase inhibitors, hydantocidin-5'-monophosphate and hadacidin were chosen and compared for their level of enzyme inhibitory activity. Hydantocidin-5'-monophosphate was synthesized by debenzylating an intermediate synthesized by the method of Mio et al. (Tetrahedron, 47, 2133-2144, 1991), [2R, 3R, 4R, 5S]-6-N-acetyl-2-benzyloxymethyl-3,4-isopropylidene-1-oxa-6,8-diazaspiro[4,4]nonane-7,9-dione (Compound 24) and then converting it into its diphenyl phosphate ester, followed by deacetonidation, deacetylation and dephenylation by catalytic reduction. Hadacidin was synthesized by the method of Jahngen-Rossomand (Synth. Commun. 12, 601-606, 1982). Adenylosuccinate synthase was purified from rabbit muscles by the method of Fischer et al. (Methods in Enzymol. LI, 207-213). Each inhibitor (hydantocidin-5'-monophosphate or hadacidin at a final concentration of 1µM-1mM) (10 µl) and a substrate solution (50 mM HEPES, pH 7.3, 1 mM MgCl2, 0.2 mM GTP, 0.2 mM IMP, 2.5 mM Asp [each final concentration]) (60 µl) were added to adenylosuccinate synthase (10 µl) added dropwise into a microspectroscopic cell, and mixed together, then the microspectroscopic cell was immediately set in a spectrophotometer BECKMAN DU650 (Beckman) to determine change of absorbance at 285 nm with time for a period of 2 to 5 minutes after the reaction was started.

[2] = system: Raji cells having MTAP activity; assay: cell growth, MTT method; assay type: cell-based, human
Procedure: (§1) CCRF-CEM cells lacking MTAP activity and Raji cells having MTAP activity suspended in a modified MEM Zn^++ medium (GIBCO BRL) containing 10% dialyzed horse serum (GIBCO BRL) pretreated at 56°C for 30 minutes were plated on 96-well microplates at concentrations of 1.5 x 10^5 cells/ml and 5 x 10^4 cells/ml, respectively, and adenylosuccinate synthase inhibitors (hydantocidin-5'-monophosphate and hadacidin at a final concentration of 1 µM-1mM) were added to 100 µl/well in the presence or absence of a substrate for MTAP, MTA (final concentration 10 µM). After incubation in the presence of 5% CO2 at 37°C for 2 days, the survival cell number was counted by the MTT method (J. Immunol. Methods, 65, 55-63, 1983) (using Cell Titer 96® Aqueous Non-Radioactive Cell Proliferation Assay [Promega]) to assess effects on cell growth.

[3] = system: CCRF-CEM cells lacking MTAP activity; assay: cell growth, MTT method; assay type: cell-based, human
Procedure: as §1

[4] = system: human glioma cell line A-172 lacking MTAP activity; assay: cell growth, MTT method, 3 days incubation; assay type: cell-based; settings: Fig. 4A
Procedure: (§2) Cell extracts were reacted with [8-^14C] MTA, a substrate for MTAP, and the reaction solutions were partially developed by thin-layer chromatography to visualize spots corresponding to [^14C] adenine produced by the action of MTAP in the presence of [8-^14C] […] The same experiment was performed as for Raji cells in Fig. 3 except that incubation was performed for 3 days. […] The same experiment was performed as for Raji cells in Fig. 3 except that incubation was performed for 3 days and that [^3H] thymidine uptake for 5 hours was assayed. […]
as §1

[5] = system: human glioma cell line T98G having MTAP activity; assay: cell growth, MTT method, 3 days incubation; assay type: cell-based; settings: Fig. 4B
Procedure: as §2, §1

[6] = system: human pancreatic cancer cell line BxPC-3; assay: cell growth, [3H] thymidine uptake; assay type: cell-based; settings: 3 days incubation; [3H] thymidine uptake for 5 hours; Fig. 5B
Procedure: as §2, §1

[7] = system: human non-small cell lung cancer cell line A549; assay: cell growth, [3H] thymidine uptake; assay type: cell-based; settings: 3 days incubation; [3H] thymidine uptake for 5 hours; Fig. 5A
Procedure: as §2, §1

[8] = absence of MTA, compared with CCRF-CEM in presence of MTA, 2 days

Question: How did the IC50 ([1]; enzyme purified from rabbit muscles; 0.2 mM GTP, 0.2 mM IMP, 2.5 mM Asp, pH 7.3; read-out: IC50 (inhibited adenylosuccinate synthase activity)) turn out when `O=CN(O)CC(=O)O` [hadacidin] was run?
Answer: 10 µM

Question: What does the source list for `O=C1NC(=O)[C@@]2(N1)O[C@H](COP(=O)(O)O)[C@@H](O)[C@H]2O` [hydantocidin-5'-monophosphate]?
Answer: IC50 ([1]; read-out: IC50 (inhibited adenylosuccinate synthase activity); enzyme purified from rabbit muscles; 0.2 mM GTP, 0.2 mM IMP, 2.5 mM Asp, pH 7.3): 0.03 µM; cytotoxicity ([2]; MTA added (final concentration 10 µM), 2 days incubation): did not show cytotoxicity; level of cytotoxicity in the absence of MTA [2, 8]: comparable; IC50 ([3]; Homo sapiens, CCRF-CEM, 48 h, read-out: IC50 (cytotoxicity)): 30 µM; level of cytotoxicity in the absence of MTA [3, 8]: comparable; toxicity [4]: showed selective toxicity; toxicity [5]: showed selective toxicity; growth inhibitory effects [6]: showed growth inhibitory effects; growth inhibitory effects [7]: showed growth inhibitory effects
